Among the data in patent US20250188030A1, “Biphenyl and Phenylpyridine Compounds” (Pfizer Inc., priority 2023, published 2025) are IC50 and Ki values, retold here.

Where two headings read alike, the source gives them in different places.

One experiment concerns H3K9AC (HT1080 cells). Put plainly: H3K9AC Sandwich ELISA Assay in HT1080 cells (KAT2A primary cell-based screening assay). Details: species or system Human. The essentials:
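Acetylated H3K9 quantified by luminescent sandwich ELISA (total H3 capture, H3K9ac detection) on HCl lysates of HT1080 cells. Cells had 24 h compound exposure at 37 °C, top concentration 10 µM, 10-point 3-fold series, 0.1% DMSO; IC50 from four-parameter fitting.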

The target of another experiment is KAT2A (Homo sapiens (Human), UniProt Q92830). The experiment in a line: KAT2A acetyltransferase biochemical assay (RapidFire mass spectrometry, AcCoA to CoA).
Chain of KAT2A (Q92830 whole entry): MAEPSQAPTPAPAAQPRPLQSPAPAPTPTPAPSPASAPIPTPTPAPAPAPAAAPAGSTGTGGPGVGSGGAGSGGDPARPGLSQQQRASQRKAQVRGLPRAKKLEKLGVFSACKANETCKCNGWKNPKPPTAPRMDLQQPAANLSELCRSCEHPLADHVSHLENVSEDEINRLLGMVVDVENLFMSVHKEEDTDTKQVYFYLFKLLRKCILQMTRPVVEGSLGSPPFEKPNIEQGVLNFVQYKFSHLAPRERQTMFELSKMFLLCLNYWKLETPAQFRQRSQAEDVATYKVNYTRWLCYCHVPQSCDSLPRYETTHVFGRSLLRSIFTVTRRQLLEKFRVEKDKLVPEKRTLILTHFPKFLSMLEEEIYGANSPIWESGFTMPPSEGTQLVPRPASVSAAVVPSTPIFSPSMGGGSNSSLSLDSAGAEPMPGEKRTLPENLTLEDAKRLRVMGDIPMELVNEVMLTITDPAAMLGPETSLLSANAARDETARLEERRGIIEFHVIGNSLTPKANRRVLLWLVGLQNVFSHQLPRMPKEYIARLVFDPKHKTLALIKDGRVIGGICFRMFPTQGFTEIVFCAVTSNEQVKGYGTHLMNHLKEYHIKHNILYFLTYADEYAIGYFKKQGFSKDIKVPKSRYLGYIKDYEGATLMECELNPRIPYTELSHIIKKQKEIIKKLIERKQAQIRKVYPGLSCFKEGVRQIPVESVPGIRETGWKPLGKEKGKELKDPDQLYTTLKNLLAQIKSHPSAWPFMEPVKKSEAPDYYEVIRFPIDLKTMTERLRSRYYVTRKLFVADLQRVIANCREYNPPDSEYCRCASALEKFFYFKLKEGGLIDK
The mark [1] stands for this setting: read-out: KAT2A Ki at 1 μM AcCoA, 5 μM H3 1-21 peptide, 0.5 nM KAT2A, 90-minute reaction.
Setting [2] is: Homo sapiens, HT-1080, H3K9AC sandwich ELISA.

Regarding `O=C(O)c1nn(C2CC2)cc1-c1ccc(O[C@@H]2CC[C@@H](NC(=O)[C@@]3(F)CNC4(CCC4)C3)C2)c(-c2cccc(F)c2C2CCC2)c1` (single isomer, unassigned) [Example J11], half-maximal inhibition with H3K9AC (HT1080 cells) (H3K9AC sandwich ELISA) (IC50) was put at 8.85 nM. Moreover, the inhibitory constant (Ki) on KAT2A (setting [1]) is 0.08 nM.
For the compound `O=C(O)c1nn(C2CC2)cc1-c1ccc(O[C@@H]2CC[C@@H](NC(=O)[C@@]3(F)CNC4(CCC4)C3)C2)c(-c2cccc(F)c2C2CCC2)c1` (single isomer, unassigned) [Example J12], the IC50 with H3K9AC (HT1080 cells) (H3K9AC sandwich ELISA) was above 1000 nM. Also, on KAT2A (setting [1]), the inhibitory constant (Ki) amounted to 25.8 nM.
The matching figures for `CC(C)n1cc(-c2ccc(O[C@@H]3CC[C@@H](NC(=O)[C@@]4(F)CNC5(CCC5)C4)C3)c(-c3cccc(F)c3C3CCC3)c2)c(C(=O)O)n1` (single isomer, unassigned) [Example J15]: 451 nM and 27.3 nM.
`CN1CC(C)(C)C[C@H]1C(=O)N[C@H]1C[C@H](Oc2ccc(C(=O)O)cc2-c2ccccc2C2CCC2)C[C@H]1O` (single isomer, unassigned) [Example K2, 2′-cyclobutyl-6-({(1ξ,3ξ,4ξ)-3-hydroxy-4-[(1,4,4-trimethyl-L-prolyl)amino]cyclopentyl}oxy)[1,1′-biphenyl]-3-carboxylic acid] came in with an IC50 in the experiment with H3K9AC (HT1080 cells) (setting [2]) of 28.6 nM. For the same compound, the Ki on KAT2A (setting [1]) turned out to be 1.21 nM.
In the experiment with H3K9AC (HT1080 cells) (setting [2]), `O=C(O)c1ccc(O[C@@H]2CC[C@@H](NC(=O)[C@@]3(F)CNC4(CCC4)C3)C2)c(-c2cccc(F)c2C2CCC2)c1` [Example A29, 2′-cyclobutyl-3′-fluoro-6-{[(1R,3R)-3-{[(7S)-7-fluoro-5-azaspiro[3.4]octane-7-carbonyl]amino}cyclopentyl]oxy}[1,1′-biphenyl]-3-carboxylic acid] registered an IC50 above 1000 nM. Also, the inhibition constant Ki at KAT2A (setting [1]) came out at 0.11 nM.
In the experiment with H3K9AC (HT1080 cells) (setting [2]), `CCc1c(F)cccc1-c1cc(C(C)(C)C(=O)NS(=O)(=O)CC)ccc1O[C@@H]1CC[C@@H](NC(=O)[C@@]2(F)CNC3(CCC3)C2)C1` [Example C17, (7S)-N-[(1R,3R)-3-({5-[1-(ethanesulfonamido)-2-methyl-1-oxopropan-2-yl]-2′-ethyl-3′-fluoro[1,1′-biphenyl]-2-yl}oxy)cyclopentyl]-7-fluoro-5-azaspiro[3.4]octane-7-carboxamide] gave an IC50 above 1000 nM. At KAT2A (setting [1]), the Ki was 2750 nM.
As to `CCc1c(F)cccc1-c1cc(C(C)(C)C(=O)NS(=O)(=O)C2(C)CC2)ccc1O[C@@H]1CC[C@@H](NC(=O)[C@@]2(F)CNC3(CCC3)C2)C1` [Example C23, (7S)-N-[(1R,3R)-3-({2′-ethyl-3′-fluoro-5-[2-methyl-1-(1-methylcyclopropane-1-sulfonamido)-1-oxopropan-2-yl][1,1′-biphenyl]-2-yl}oxy)cyclopentyl]-7-fluoro-5-azaspiro[3.4]octane-7-carboxamide], in the experiment on H3K9AC (HT1080 cells) (setting [2]), the IC50 is 91.8 nM. For the same compound, the Ki at KAT2A (setting [1]) amounted to 6.57 nM.
In the experiment on H3K9AC (HT1080 cells) (setting [2]), `CCc1ccccc1-c1cc(CC(=O)NS(=O)(=O)C(C)C)ccc1O[C@@H]1CC[C@@H](NC(=O)[C@@]2(F)CNC3(CCC3)C2)C1` [Example C52, (7S)-N-[(1R,3R)-3-({2′-ethyl-5-[2-oxo-2-(propane-2-sulfonamido)ethyl][1,1′-biphenyl]-2-yl}oxy)cyclopentyl]-7-fluoro-5-azaspiro[3.4]octane-7-carboxamide] returned an IC50 of 8.5 nM. Also, the Ki on KAT2A (setting [1]) turned out to be 0.48 nM.
In the experiment on H3K9AC (HT1080 cells) (setting [2]), `CCS(=O)(=O)NC(=O)Cc1ccc(O[C@@H]2CC[C@@H](NC(=O)[C@@]3(F)CNC4(CCC4)C3)C2)c(-c2ccccc2C(C)C)c1` [Example C53, (7S)-N-[(1R,3R)-3-({5-[2-(ethanesulfonamido)-2-oxoethyl]-2′-(propan-2-yl)[1,1′-biphenyl]-2-yl}oxy)cyclopentyl]-7-fluoro-5-azaspiro[3.4]octane-7-carboxamide] yielded an IC50 of 7 nM. At KAT2A (setting [1]), the Ki was 0.1 nM.
Compound `CN1CC(C)(C)C[C@H]1C(=O)N[C@@H]1CC[C@@H](Oc2ccc(C(=O)O)cc2-c2ccccc2C2CCC2)C1` [Example D4, 2′-cyclobutyl-6-({(1R,3R)-3-[(1,4,4-trimethyl-L-prolyl)amino]cyclopentyl}oxy)[1,1′-biphenyl]-3-carboxylic acid] displayed an IC50 in the experiment with H3K9AC (HT1080 cells) (setting [2]) of 88 nM. In addition, the inhibitory constant (Ki) at KAT2A (setting [1]) worked out at 25.1 nM.
The corresponding values for `CN1CC(C)(C)C[C@H]1C(=O)N[C@@H]1CC[C@@H](Oc2ccc(C(=O)O)cc2-c2cccc(F)c2C2CCC2)C1` [Example D6, 2′-cyclobutyl-3′-fluoro-6-({(1R,3R)-3-[(1,4,4-trimethyl-L-prolyl)amino]cyclopentyl}oxy)[1,1′-biphenyl]-3-carboxylic acid] are 19 nM and 1.08 nM.
`CC(C)c1c(F)cccc1-c1cc(C(=O)O)ccc1O[C@@H]1CC[C@@H](NC(=O)[C@@H]2CC(C)(C)CN2C)C1` [Example D7, 3′-fluoro-2′-(propan-2-yl)-6-({(1R,3R)-3-[(1,4,4-trimethyl-L-prolyl)amino]cyclopentyl}oxy)[1,1′-biphenyl]-3-carboxylic acid] returned a 50% inhibitory concentration (IC50) in the experiment with H3K9AC (HT1080 cells) (setting [2]) of 45.1 nM. Also, on KAT2A (setting [1]), the Ki is 3.57 nM.
In the experiment on H3K9AC (HT1080 cells) (setting [2]), `CC(C)c1c(F)cccc1-c1cc(CC(=O)O)ccc1O[C@@H]1CC[C@@H](NC(=O)[C@@H]2CC(C)(C)CN2C)C1` [Example D12, [3′-fluoro-2′-(propan-2-yl)-6-({(1R,3R)-3-[(1,4,4-trimethyl-L-prolyl)amino]cyclopentyl}oxy)[1,1′-biphenyl]-3-yl]acetic acid] returned an IC50 of 66.6 nM. Besides, at KAT2A (setting [1]), the Ki came out at 12.4 nM.
The corresponding values for `[2H]C([2H])([2H])N1CC(C)(C)C[C@H]1C(=O)N[C@@H]1CC[C@@H](Oc2ccc(C(C)(C)C(=O)O)cc2-c2cccc(F)c2C2CCC2)C1` [Example D15, 2-(2′-cyclobutyl-6-{[(1R,3R)-3-{[4,4-dimethyl-1-(^2H3)methyl-L-prolyl]amino}cyclopentyl]oxy}-3′-fluoro[1,1′-biphenyl]-3-yl)-2-methylpropanoic acid] are 83.5 nM and 8.87 nM.
`CN1CC(C)(C)C[C@H]1C(=O)N[C@@H]1CC[C@@H](Oc2ccc(C(C)(C)c3noc(=O)[nH]3)cc2-c2cccc(F)c2C2CCC2)C1` [Example D17, N-[(1R,3R)-3-({2′-cyclobutyl-3′-fluoro-5-[2-(5-oxo-4,5-dihydro-1,2,4-oxadiazol-3-yl)propan-2-yl][1,1′-biphenyl]-2-yl}oxy)cyclopentyl]-1,4,4-trimethyl-L-prolinamide]: the IC50 in the experiment with H3K9AC (HT1080 cells) (setting [2]) is 14.4 nM. Further, the Ki at KAT2A (setting [1]) is 2.64 nM.
The matching figures for `CN1CC(C)(C)CC1C(=O)N[C@H]1C[C@H](COc2ccc(CC(=O)NS(C)(=O)=O)cc2-c2cccc(F)c2C2CCC2)C1` (stereo partly drawn) [Example G1, N-[(1r,3S)-3-{[(2′-cyclobutyl-3′-fluoro-5-{2-[(methanesulfonyl)amino]-2-oxoethyl}[1,1′-biphenyl]-2-yl)oxy]methyl}cyclobutyl]-1,4,4-trimethyl-L-prolinamide]: 55.2 nM and 2.55 nM.
In turn, `CN(C)S(=O)(=O)NC(=O)c1cccc(O[C@@H]2CC[C@@H](NC(=O)[C@@]3(F)CNC4(CCC4)C3)C2)c1-c1cccc(F)c1C1CCC1` [Example I20, (7S)-N-[(1R,3R)-3-({(1ψ)-2′-cyclobutyl-6-[(dimethylsulfamoyl)carbamoyl]-3′-fluoro[1,1′-biphenyl]-2-yl}oxy)cyclopentyl]-7-fluoro-5-azaspiro[3.4]octane-7-carboxamide] registered a half-inhibitory concentration (IC50) in the experiment with H3K9AC (HT1080 cells) (H3K9AC sandwich ELISA) of 51.9 nM. In addition, the Ki on KAT2A (setting [1]) worked out at 26.3 nM.
For the compound `CN1CC(C)(C)C[C@H]1C(=O)N[C@@H]1CC[C@@H](Oc2ccc(-c3nn(C)cc3CC(=O)O)cc2-c2cccc(F)c2C2CCC2)C1` [Example J8, {3-[2′-cyclobutyl-3′-fluoro-6-({(1R,3R)-3-[(1,4,4-trimethyl-L-prolyl)amino]cyclopentyl}oxy)[1,1′-biphenyl]-3-yl]-1-methyl-1H-pyrazol-4-yl}acetic acid], the IC50 with H3K9AC (HT1080 cells) (setting [2]) turned out to be 2.71 nM. Besides, on KAT2A (setting [1]), the Ki came to 0.74 nM.
Regarding `CN1CC(C)(C)C[C@H]1C(=O)N[C@H]1C[C@H](Oc2ccc(C(C)(C)C(=O)O)cc2-c2cccc(F)c2C2CCC2)C[C@H]1O` [Example K1, 2-[2′-cyclobutyl-3′-fluoro-6-({(1S,3R,4S)-3-hydroxy-4-[(1,4,4-trimethyl-L-prolyl)amino]cyclopentyl}oxy)[1,1′-biphenyl]-3-yl]-2-methylpropanoic acid], the IC50 with H3K9AC (HT1080 cells) (setting [2]) is 5.19 nM. On KAT2A (KAT2A Ki at 1 μM AcCoA, 5 μM H3 1-21 peptide, 0.5 nM KAT2A, 90-minute reaction), this compound showed a Ki of 0.15 nM.
